Like-named read-outs stand apart in the source and are kept apart here.
Assays:
[1] = molecular target: human Werner helicase (WRN, amino acids 517-1235 with L1074F point mutation) (Homo sapiens (Human), UniProt Q14191, L1074F); assay: WRN (BV08) ADP-Glo assay; assay type: biochemical; conditions: human WRN (aa 517-1235, L1074F), read-out: ADP-Glo_hWRN_IC50
Summary of the method: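 ADP-Glo luminescence read after 60 min, 25 °C reaction of 0.15 nM WRN (517-1235, L1074F, Sf9-expressed, tag removed) with 0.1 nM DNA duplex and 5 μM ATP, following 15 min compound preincubation; 20 mM Bicine pH 7.5, 1% DMSO. IC50 from 3- or 4-parameter fit of % inhibition.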

[2] = system: p21 induction in HCT 116 cells; assay: p21 induction in cells (In-Cell Western, p21/GAPDH ratio); assay type: cell-based; conditions: 24 h compound incubation, read-out: p21_EC50
Summary of the method: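 EC50 values come from nonlinear fits of percent activation, defined by the 800/700 nm p21-to-GAPDH ratio scaled between DMSO (low) and internal WRN inhibitor (high) controls. In-Cell Western read after 24 h compound exposure of HCT 116 cells at 37° C. Duplicate 11-point series, 2-fold steps, usually starting at 10 μM.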

Chain of human Werner helicase (WRN, amino acids 517-1235 with L1074F point mutation) (Q14191 other isoform, or with tags, fused parts or gaps L1074F (already in the parent)): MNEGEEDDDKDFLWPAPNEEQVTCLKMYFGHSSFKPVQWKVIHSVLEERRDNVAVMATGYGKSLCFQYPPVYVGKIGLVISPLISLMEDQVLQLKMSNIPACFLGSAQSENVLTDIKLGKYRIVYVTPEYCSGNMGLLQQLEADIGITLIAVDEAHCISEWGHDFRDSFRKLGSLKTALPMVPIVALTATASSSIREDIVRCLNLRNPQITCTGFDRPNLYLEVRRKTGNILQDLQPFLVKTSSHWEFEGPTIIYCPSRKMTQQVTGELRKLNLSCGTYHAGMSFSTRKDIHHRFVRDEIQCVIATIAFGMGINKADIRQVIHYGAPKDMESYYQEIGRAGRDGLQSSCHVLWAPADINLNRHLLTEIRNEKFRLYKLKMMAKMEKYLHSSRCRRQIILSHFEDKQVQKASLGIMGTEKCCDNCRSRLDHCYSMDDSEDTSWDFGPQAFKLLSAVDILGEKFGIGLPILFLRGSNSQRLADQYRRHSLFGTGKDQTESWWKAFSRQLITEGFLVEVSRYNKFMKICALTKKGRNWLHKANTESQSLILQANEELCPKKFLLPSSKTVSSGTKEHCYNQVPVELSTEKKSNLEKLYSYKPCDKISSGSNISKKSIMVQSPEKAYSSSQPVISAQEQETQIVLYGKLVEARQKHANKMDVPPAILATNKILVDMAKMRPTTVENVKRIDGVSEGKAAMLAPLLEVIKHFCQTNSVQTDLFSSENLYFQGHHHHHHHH

IC50 [1] [nM] | EC50 ([2]; Homo sapiens) [nM] | EC50 [2] [nM] | Compound
5 to 50 | ≤ 500 |  | CCc1c(N2CCN(C(=O)c3c(O)ccc4ncoc34)[C@H]3CC[C@@H]32)c(=O)c2nn(-c3ccnc(OC)c3)nc2n1CC(=O)NC12CC(C(F)(F)F)(C1)C2 [Compound I-148, 2-{5-ethyl-6-[(1S,6S)-5-(6-hydroxy-1,3-benzoxazole-7-carbonyl)-2,5-diazabicyclo[4.2.0]octan-2-yl]-2-(2-methoxypyridin-4-yl)-7-oxo-2H,4H,7H-[1,2,3]triazolo[4,5-b]pyridin-4-yl}-N-[3-(trifluoromethyl)bicyclo[1.1.1]pentan-1-yl]acetamide]
5 to 50 | 500 to 2000 |  | CCc1c(N2CCN(C(=O)c3c(O)ccc(C)c3OC)CC2)c(=O)c2nn(-c3ccnc(OC)c3)nc2n1CC(=O)NC12CC(C3CC3)(C1)C2 [Compound I-110, N-{3-cyclopropylbicyclo[1.1.1]pentan-1-yl}-2-{5-ethyl-6-[4-(6-hydroxy-2-methoxy-3-methylbenzoyl)piperazin-1-yl]-2-(2-methoxypyridin-4-yl)-7-oxo-2H,4H,7H-[1,2,3]triazolo[4,5-b]pyridin-4-yl}acetamide]
≤ 5 | ≤ 500 |  | CCc1c(N2CCN(C(=O)c3ncnc(C)c3O)[C@H]3CC[C@@H]32)c(=O)c2nn(C3CC3)nc2n1CC(=O)Nc1ccc(C(F)(F)F)cc1Cl [Compound I-153, N-[2-chloro-4-(trifluoromethyl)phenyl]-2-{2-cyclopropyl-5-ethyl-6-[(1S,6S)-5-(5-hydroxy-6-methylpyrimidine-4-carbonyl)-2,5-diazabicyclo[4.2.0]octan-2-yl]-7-oxo-2H,4H,7H-[1,2,3]triazolo[4,5-b]pyridin-4-yl}acetamide]
5 to 50 | 2000 to 5000 |  | CCc1c(N2CCN(C(=O)c3c(O)cccc3OC(F)(F)F)CC2)c(=O)c2nn(-c3ccnc(OC)c3)nc2n1CC(=O)NC12CC(C3CC3)(C1)C2 [Compound I-136, N-{3-cyclopropylbicyclo[1.1.1]pentan-1-yl}-2-(5-ethyl-6-{4-[2-hydroxy-6-(trifluoromethoxy)benzoyl]piperazin-1-yl}-2-(2-methoxypyridin-4-yl)-7-oxo-2H,4H,7H-[1,2,3]triazolo[4,5-b]pyridin-4-yl)acetamide]
5 to 50 | 500 to 2000 |  | CCc1c(N2CCN(C(=O)c3cccnc3OC(F)F)[C@H]3CC[C@@H]32)c(=O)c2nn(C3=CCOCC3)nc2n1CC(=O)NC12CC(C(C)C)(C1)C2 [Compound I-207, 2-{6-[(1S,6S)-5-[2-(difluoromethoxy)pyridine-3-carbonyl]-2,5-diazabicyclo[4.2.0]octan-2-yl]-2-(3,6-dihydro-2H-pyran-4-yl)-5-ethyl-7-oxo-2H,4H,7H-[1,2,3]triazolo[4,5-b]pyridin-4-yl}-N-[3-(propan-2-yl)bicyclo[1.1.1]pentan-1-yl]acetamide]
5 to 50 | ≤ 500 |  | CCc1c(N2CCN(C(=O)c3c(OC)ncc(C)c3O)CC2)c(=O)c2nn(-c3ccnc(OC)c3)nc2n1CC(=O)NC12CC(C(C)C)(C1)C2 [Compound I-114, 2-{5-ethyl-6-[4-(4-hydroxy-2-methoxy-5-methylpyridine-3-carbonyl)piperazin-1-yl]-2-(2-methoxypyridin-4-yl)-7-oxo-2H,4H,7H-[1,2,3]triazolo[4,5-b]pyridin-4-yl}-N-[3-(propan-2-yl)bicyclo[1.1.1]pentan-1-yl]acetamide]
5 to 50 | ≤ 500 |  | CCc1c(N2CCN(C(=O)c3ncnc(C)c3O)[C@H]3CC[C@@H]32)c(=O)c2nn(-c3ccnc(OC)c3)nc2n1CC(=O)NC12CC(OC(F)(F)F)(C1)C2 [Compound I-29, 2-(5-ethyl-6-((1S,6S)-5-(5-hydroxy-6-methylpyrimidine-4-carbonyl)-2,5-diazabicyclo[4.2.0]octan-2-yl)-2-(2-methoxypyridin-4-yl)-7-oxo-2,7-dihydro-4H-[1,2,3]triazolo[4,5-b]pyridin-4-yl)-N-(3-(trifluoromethoxy)bicyclo[1.1.1]pentan-1-yl)acetamide]
5 to 50 | ≤ 500 |  | CCc1c(N2CCN(C(=O)c3ccc4cccc(O)c4n3)[C@H]3CC[C@@H]32)c(=O)c2nn(C3=CCOCC3)nc2n1CC(=O)NC12CC(C(C)C)(C1)C2 [Compound I-158, 2-[2-(3,6-dihydro-2H-pyran-4-yl)-5-ethyl-6-[(1S,6S)-5-(8-hydroxyquinoline-2-carbonyl)-2,5-diazabicyclo[4.2.0]octan-2-yl]-7-oxo-2H,4H,7H-[1,2,3]triazolo[4,5-b]pyridin-4-yl]-N-[3-(propan-2-yl)bicyclo[1.1.1]pentan-1-yl]acetamide]
5 to 50 | ≤ 500 |  | CCc1c(C2=CCN(C(=O)c3ncnc(C)c3O)CC2(C)C)c(=O)n2nc(C3=CCOCC3)nc2n1CC(=O)Nc1ccc(C(F)(F)F)cc1Cl [Compound I-174, N-[2-chloro-4-(trifluoromethyl)phenyl]-2-[2-(3,6-dihydro-2H-pyran-4-yl)-5-ethyl-6-[1-(5-hydroxy-6-methylpyrimidine-4-carbonyl)-3,3-dimethyl-1,2,3,6-tetrahydropyridin-4-yl]-7-oxo-4H,7H-[1,2,4]triazolo[1,5-a]pyrimidin-4-yl]acetamide]
5 to 50 |  | ≤ 500 | CCc1c(N2CCN(C(=O)c3ncnc(C)c3O)[C@H]3CC[C@@H]32)c(=O)c2nn(C3=CCOCC3)nc2n1CC(=O)NC12CC(C(C)C)(C1)C2 [Compound I-49, 2-[2-(3,6-dihydro-2H-pyran-4-yl)-5-ethyl-6-[(1S,6S)-5-(5-hydroxy-6-methylpyrimidine-4-carbonyl)-2,5-diazabicyclo[4.2.0]octan-2-yl]-7-oxo-2H,4H,7H-[1,2,3]triazolo[4,5-b]pyridin-4-yl]-N-[3-(propan-2-yl)bicyclo[1.1.1]pentan-1-yl]acetamide]
5 to 50 | ≤ 500 |  | CCc1c(N2CCN(C(=O)c3ncnc(C)c3O)[C@H]3CC[C@@H]32)c(=O)c2nn(-c3cc(C)n(C)n3)nc2n1CC(=O)NC12CC(C(C)C)(C1)C2 [Compound I-35, 2-[2-(1,5-dimethyl-1H-pyrazol-3-yl)-5-ethyl-6-[(1S,6S)-5-(5-hydroxy-6-methylpyrimidine-4-carbonyl)-2,5-diazabicyclo[4.2.0]octan-2-yl]-7-oxo-2H,4H,7H-[1,2,3]triazolo[4,5-b]pyridin-4-yl]-N-[3-(propan-2-yl)bicyclo[1.1.1]pentan-1-yl]acetamide]
5 to 50 | ≤ 500 |  | CCc1c(N2CCN(C(=O)c3ncnc(C)c3O)CC2)c(=O)c2nn(-c3ccnc(OC)c3)nc2n1CC(=O)NC12CC(C3CCC3)(C1)C2 [Compound I-140, N-{3-cyclobutylbicyclo[1.1.1]pentan-1-yl}-2-{5-ethyl-6-[4-(5-hydroxy-6-methylpyrimidine-4-carbonyl)piperazin-1-yl]-2-(2-methoxypyridin-4-yl)-7-oxo-2H,4H,7H-[1,2,3]triazolo[4,5-b]pyridin-4-yl}acetamide]
5 to 50 |  | ≤ 500 | CCc1c(N2CCN(C(=O)c3c(O)ccc4ncoc34)[C@H]3CC[C@@H]32)c(=O)c2nn(-c3ccnc(OC)c3)nc2n1CC(=O)NC12CC(C(F)(F)F)(C1)C2 [Compound I-4, 2-(5-ethyl-6-((1S,6S)-5-(6-hydroxybenzo[d]oxazole-7-carbonyl)-2,5-diazabicyclo[4.2.0]octan-2-yl)-2-(2-methoxypyridin-4-yl)-7-oxo-2,7-dihydro-4H-[1,2,3]triazolo[4,5-b]pyridin-4-yl)-N-(3-(trifluoromethyl)bicyclo[1.1.1]pentan-1-yl)acetamide]
5 to 50 | 500 to 2000 |  | CCc1c(N2CCN(C(=O)c3c(OC)ncc(C)c3O)CC2)c(=O)c2nn(-c3ccnc(OC)c3)nc2n1CC(=O)NC1CC2(CCCC2)C1 [Compound I-99, 2-{5-ethyl-6-[4-(4-hydroxy-2-methoxy-5-methylpyridine-3-carbonyl)piperazin-1-yl]-2-(2-methoxypyridin-4-yl)-7-oxo-2H,4H,7H-[1,2,3]triazolo[4,5-b]pyridin-4-yl}-N-{spiro[3.4]octan-2-yl}acetamide]
5 to 50 | 2000 to 5000 |  | CCc1c(N2CCN(C(=O)c3c(OC)ncc(Cl)c3O)[C@H]3CC[C@@H]32)c(=O)c2nn(C3=CCOCC3)nc2n1CC(=O)NC12CC(C3CC3)(C1)C2 [Compound I-213, 2-{6-[(1S,6S)-5-(5-chloro-4-hydroxy-2-methoxypyridine-3-carbonyl)-2,5-diazabicyclo[4.2.0]octan-2-yl]-2-(3,6-dihydro-2H-pyran-4-yl)-5-ethyl-7-oxo-2H,4H,7H-[1,2,3]triazolo[4,5-b]pyridin-4-yl}-N-{3-cyclopropylbicyclo[1.1.1]pentan-1-yl}acetamide]
5 to 50 | ≤ 500 |  | CCc1c(N2CCN(C(=O)c3c(OC)ncc(C)c3O)CC2)c(=O)c2nn(C3=CCOCC3)nc2n1CC(=O)NC12CC(C3CC3)(C1)C2 [Compound I-97, N-{3-cyclopropylbicyclo[1.1.1]pentan-1-yl}-2-[2-(3,6-dihydro-2H-pyran-4-yl)-5-ethyl-6-[4-(4-hydroxy-2-methoxy-5-methylpyridine-3-carbonyl)piperazin-1-yl]-7-oxo-2H,4H,7H-[1,2,3]triazolo[4,5-b]pyridin-4-yl]acetamide]
5 to 50 | 500 to 2000 |  | CCc1c(N2CCN(C(=O)c3cccc4ncoc34)[C@H]3CC[C@@H]32)c(=O)c2nn(-c3ccnc(OC)c3)nc2n1CC(=O)NC12CC(C(C)C)(C1)C2 [Compound I-108, 2-{6-[(1S,6S)-5-(1,3-benzoxazole-7-carbonyl)-2,5-diazabicyclo[4.2.0]octan-2-yl]-5-ethyl-2-(2-methoxypyridin-4-yl)-7-oxo-2H,4H,7H-[1,2,3]triazolo[4,5-b]pyridin-4-yl}-N-[3-(propan-2-yl)bicyclo[1.1.1]pentan-1-yl]acetamide]

Reference: patent US20250129069A1, “TRIAZOLO WRN INHIBITORS” (Nimbus Wadjet, Inc., priority 2023, published 2025)
